# What was measured:
# CYP2d2 = biological target: T1, CYP2d2 (Rattus norvegicus, UniProt P10634); parameters: from tissue; host or cells: live male Sprague-Dawley rats (whole animal, mainly liver); settings: in vivo
# T1 sequence (P10634 1-500): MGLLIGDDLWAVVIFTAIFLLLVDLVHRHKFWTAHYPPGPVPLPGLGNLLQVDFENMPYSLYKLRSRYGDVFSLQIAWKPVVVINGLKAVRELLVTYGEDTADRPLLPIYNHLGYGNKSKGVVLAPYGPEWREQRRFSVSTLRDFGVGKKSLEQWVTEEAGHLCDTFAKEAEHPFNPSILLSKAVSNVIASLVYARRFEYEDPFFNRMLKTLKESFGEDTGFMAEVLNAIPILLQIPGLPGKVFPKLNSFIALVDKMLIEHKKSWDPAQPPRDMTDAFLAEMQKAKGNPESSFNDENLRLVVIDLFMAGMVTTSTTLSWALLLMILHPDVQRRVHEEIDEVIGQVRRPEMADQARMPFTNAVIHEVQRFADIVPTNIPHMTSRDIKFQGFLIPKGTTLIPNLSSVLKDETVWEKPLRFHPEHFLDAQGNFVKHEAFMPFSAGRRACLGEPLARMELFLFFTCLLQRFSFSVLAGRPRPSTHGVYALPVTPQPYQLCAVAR
# Description: The effect of the Zhicaowu–Hezi combination on CYP450 enzymes in rats was evaluated by examining the pharmacokinetics of theophylline (CYP1a2), metoprolol (CYP2d2), bupropion (CYP2b1), omeprazole (CYP2c13), chlorzoxazone (CYP2e1), testosterone (CYP3a1), and diclofenac (CYP2c11).
# The collected blood was placed in sodium heparin-treated centrifuge tubes and centrifuged at 4°C for 10 min at 3,000 RPM. […] After 10 min of sedimentation, the supernatant was extracted through a 0.22-μm microporous membrane, 20 μL of which was injected into HPLC. The pharmacokinetic parameters of each probe drug were calculated using the non-atrial compartment model in Drug and Statistics software (DAS, 3.0; Shanghai, China).
# CYP2b1 = biological target: T2, CYP2b1 (Rattus norvegicus, UniProt P00176); assay: RLM incubation: metabolic clearance rate of bupropion (CYP2b1); settings: RLM 0.5 mg/mL, 30 min 37°C, inhibitor added, blank control 7.92 ± 0.60, n = 3
# T2 sequence (P00176 1-491): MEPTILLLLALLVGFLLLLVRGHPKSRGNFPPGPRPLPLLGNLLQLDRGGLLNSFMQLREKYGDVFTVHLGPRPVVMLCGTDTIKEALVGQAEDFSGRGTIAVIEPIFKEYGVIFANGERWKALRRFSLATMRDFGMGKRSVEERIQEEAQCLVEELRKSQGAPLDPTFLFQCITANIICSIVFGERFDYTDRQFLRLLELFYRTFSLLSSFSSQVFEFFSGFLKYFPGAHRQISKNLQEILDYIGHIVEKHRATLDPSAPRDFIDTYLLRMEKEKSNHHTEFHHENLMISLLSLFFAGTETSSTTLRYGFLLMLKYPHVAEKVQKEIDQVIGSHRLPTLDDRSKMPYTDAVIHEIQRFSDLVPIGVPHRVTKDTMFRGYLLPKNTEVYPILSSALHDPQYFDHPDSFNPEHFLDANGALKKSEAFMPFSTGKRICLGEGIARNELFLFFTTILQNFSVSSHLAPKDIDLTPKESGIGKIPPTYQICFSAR
# Description: (§1) The effect of the Zhicaowu–Hezi combination on CYP450 enzymes in RLM was evaluated by assessing the metabolic clearance rates of theophylline, metoprolol, bupropion, mephenytoin (CYP2c13), chlorzoxazone, testosterone, and diclofenac.
# (§2) On day 15, the rats were humanely euthanized, and liver tissues were excised for microsomal preparation. […] Livers from each group were repeatedly washed with ice-cold phosphate buffered saline (PBS). […] Subsequently, they were blotted dry with filter paper, weighed, and homogenized by adding 4 mL of ice-cold PBS per gram of liver tissue. The mixture was homogenized in an ice bath. The liver homogenate was subjected to centrifugation at 10,000 RPM for 20 min at 4°C. The resulting supernatant was then combined with an ice-cold 88-mmol/L CaCl2 solution at a 1:1 ratio, and the mixture was homogenized in an ice bath for 5 min. The resulting solution was then centrifuged at 25,000 × g for 30 min at 4°C. The supernatant was discarded and the precipitate was repeatedly resuspended in PBS–20% glycerol buffer. The precipitate was then stored in a separate bottle at −80°C for backup. The protein concentration of the prepared RLM was determined using a bicinchoninic acid protein assay kit.
# (§3) Preincubation was conducted for 5 min in a water bath at 37°C, after which NADPH (1 mmol/L) was added, and incubation continued for 30 min at 37°C. Once the incubation period elapsed, the reaction was terminated by the addition of an ice-cold IS-containing acetonitrile solution. The samples were vortexed for 2 min and centrifuged at 15,000 RPM for 10 min. The resulting supernatant was filtered through a 0.22-μm organic microporous membrane, and 20 μL of the filtered solution was injected into the HPLC assay. To prevent the organic solvents from inducing or inhibiting the enzyme, the volume fraction of organic solvents in the entire incubation system was maintained at 1%. […] The inhibitor group was added with corresponding inhibitor, while all other procedures remained identical.
# CYP1a2 = biological target: T3, CYP1a2 (Rattus norvegicus, UniProt P04799); settings: microsomes
# T3 sequence (P04799 1-513): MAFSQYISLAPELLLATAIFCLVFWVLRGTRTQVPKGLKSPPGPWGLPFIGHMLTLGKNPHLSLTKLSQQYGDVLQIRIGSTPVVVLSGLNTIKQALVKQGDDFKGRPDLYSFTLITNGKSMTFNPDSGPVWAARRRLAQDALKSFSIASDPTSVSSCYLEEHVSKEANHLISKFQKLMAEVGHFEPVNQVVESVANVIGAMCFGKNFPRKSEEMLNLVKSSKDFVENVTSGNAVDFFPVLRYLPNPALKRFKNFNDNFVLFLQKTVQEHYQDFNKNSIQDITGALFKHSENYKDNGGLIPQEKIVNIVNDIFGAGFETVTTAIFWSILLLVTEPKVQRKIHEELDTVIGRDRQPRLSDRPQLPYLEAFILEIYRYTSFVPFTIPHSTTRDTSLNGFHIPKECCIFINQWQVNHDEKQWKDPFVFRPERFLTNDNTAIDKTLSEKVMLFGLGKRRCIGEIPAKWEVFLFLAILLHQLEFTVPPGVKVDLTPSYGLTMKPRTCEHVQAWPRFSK
# Description: as §1, §2, §3
structure (smiles),measurement,setting,value
"CCC1(c2ccccc2)C(=O)NC(=O)NC1=O [P, phenobarbital sodium]",metoprolol AUC(0-t),CYP2d2,3511 ± 445 ng·h/mL
same,metoprolol AUC(0-∞),CYP2d2,3623 ± 461 ng·h/mL
same,metoprolol CLz/F,CYP2d2,"2,495.074 ± 157.841 mL/h/kg"
same,metoprolol Cmax,CYP2d2,312 ± 41 ng/mL
same,metoprolol t1/2 z,CYP2d2,2.532 ± 0.221 h
S=P(N1CC1)(N1CC1)N1CC1 [Thiotepa],CYP2b1(%) metabolic clearance rate of probe drug,CYP2b1,2.24 ± 0.16 %
same,CYP1a2 (%) metabolic clearance rate of probe drug,CYP1a2,35.91 ± 1.40%
O=c1cc(-c2ccccc2)oc2c1ccc1ccccc12 [α-naphthoflavone],CYP2b1(%) metabolic clearance rate of probe drug,CYP2b1,8.00 ± 0.97%
same,CYP1a2 (%) metabolic clearance rate of probe drug,CYP1a2,28.92 ± 1.91 %
